From ChEMBL document CHEMBL1201862, “PubChem BioAssay data set” (2004) come the findings set out here.

Some test systems named below: CCRF-CEM; HCT-15; Hs-578T; M14; MDA-N; Malme-3M; NCI-H23; OVCAR-3; OVCAR-4; RPMI-8226; SF-295; SK-MEL-2; SK-MEL-5; SN12C; SNB-19; SR; TK-10; UACC-257; UO-31; RXF 393.
Holding throughout (experiment): NCI-60 cell line screen, 48 h

Structures are written as SMILES.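 Five compound concentrations were applied to cells in 96-well plates for 48 hours; endpoints were derived by simple linear interpolation of the resulting dose-response curve. GI50 = concentration required for 50% inhibition of growth.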 Activity calls are given as the source filed them. Cut-off read from the data, not from the text of the source: active = GI50 up to about 1.1 µM and inactive = higher.

In the case of `O=c1[nH]c(=O)n(C2CC(O)C(COP(=O)(OCC(Cl)(Cl)Cl)OCC(Cl)(Cl)Cl)O2)cc1F` (stereo not given), the GI50 with CCRF-CEM was 0.195 µM (active); in the assay on HCT-15, above 56.1 µM; with Hs-578T, 52.7 µM (inactive); in the assay with M14, 2 µM (inactive); in the assay on MDA-N it was > 26 µM (inactive); with Malme-3M, 6.05 µM (inactive). For the same compound, the GI50 with NCI-H23 is 8.63 µM (inactive); in the assay on OVCAR-3, 8 µM (inactive); in the assay on OVCAR-4 it was > 76 µM (inactive); in the assay with RPMI-8226 it was 3.72 µM (inactive); with SF-295, 0.123 µM (active); in the assay on SK-MEL-2 it was > 100 µM (inactive). Moreover, the GI50 was 1.97 µM (inactive) with SK-MEL-5; 26.1 µM (inactive) in the assay with SN12C; 7.98 µM (inactive) in the assay with SNB-19; 0.391 µM (active) in the assay on SR; > 100 µM (inactive) in the assay on TK-10; > 100 µM (inactive) in the assay with UACC-257. Besides, in the assay with UO-31, the GI50 was 0.301 µM (active).
Regarding `C[C@@H]1CC[C@H]2[C@H](C)C(OC3O[C@@H]4O[C@@]5(C)CC[C@H]6[C@H](C)CC[C@@H]([C@@H]3C)[C@@]46O5)O[C@@H]3O[C@@]4(C)CC[C@@H]1[C@]32O4` (stereo not given in full), the GI50 in the assay on CCRF-CEM was > 100 µM (inactive); with HCT-15 it was above 100 µM; in the assay on Hs-578T, > 100 µM (inactive); in the assay on M14, > 100 µM (inactive); in the assay with MDA-N it was > 100 µM (inactive); with Malme-3M, > 100 µM (inactive). In addition, the GI50 in the assay on NCI-H23, in the assay with OVCAR-3, in the assay with OVCAR-4, in the assay with RPMI-8226, with SF-295 and in the assay on SK-MEL-2 was > 100 µM (inactive) throughout. Also, the GI50 in the assay with SK-MEL-5, in the assay on SN12C, with SNB-19, in the assay on SR, in the assay with TK-10 and in the assay on UACC-257 was > 100 µM (inactive) in each case.
As to `Cc1ccc(S(=O)(=O)N/N=C2/CC[C@H](C(C)(C)C)C[C@@H]2C)cc1`, the GI50 in the assay on CCRF-CEM was 15.8 µM (inactive); with HCT-15, 16.6 µM; in the assay on Hs-578T it was 18.2 µM (inactive); with M14 it was 13.7 µM (inactive); in the assay with MDA-N it was 17.1 µM (inactive); in the assay with Malme-3M, 16.1 µM (inactive). Also, the GI50 was 17.1 µM (inactive) with NCI-H23; 12.6 µM (inactive) in the assay with OVCAR-3; 0.574 µM (active) in the assay with OVCAR-4; 33.4 µM (inactive) in the assay on RPMI-8226; 15.8 µM (inactive) in the assay with SF-295; 17.1 µM (inactive) with SK-MEL-2. In addition, the GI50 with SK-MEL-5 was 13.8 µM (inactive); in the assay with SN12C it was 16.3 µM (inactive); in the assay on SNB-19 it was 18.5 µM (inactive); in the assay with SR, 31.8 µM (inactive); with TK-10, 16.4 µM (inactive); in the assay on UACC-257, 13.9 µM (inactive). The GI50 in the assay with UO-31 is 13.7 µM (inactive).
For the compound `O=c1n(-c2ccccc2)c(=O)n2n1C1CCC2CC1`, the GI50 with CCRF-CEM was > 100 µM (inactive); with HCT-15, above 100 µM; in the assay on Hs-578T, > 100 µM (inactive); in the assay on M14, > 100 µM (inactive); in the assay with MDA-N it was > 100 µM (inactive); in the assay on NCI-H23, > 100 µM (inactive). Besides, the GI50 in the assay with OVCAR-3, with RPMI-8226, with SF-295, in the assay on SK-MEL-2, with SK-MEL-5 and in the assay on SN12C was > 100 µM (inactive) in each case. Also, the GI50 in the assay on SNB-19, in the assay with SR, in the assay on TK-10, with UACC-257 and in the assay on UO-31 was > 100 µM (inactive) each time.
`O=C1CC(O)c2c1csc2Br` (stereo not given): the GI50 with CCRF-CEM was 25.2 µM (inactive); in the assay with HCT-15 it was 18.5 µM; in the assay with Hs-578T, 26.6 µM (inactive); in the assay with M14 it was 18.2 µM (inactive); in the assay on MDA-N, 22.5 µM (inactive); in the assay with Malme-3M it was 30.8 µM (inactive). Further, the GI50 with NCI-H23 is 21.9 µM (inactive); in the assay on OVCAR-3, 19.3 µM (inactive); with OVCAR-4 it was 31.6 µM (inactive); in the assay with RPMI-8226, 14.3 µM (inactive); in the assay on RXF 393, 17.3 µM (inactive); in the assay with SF-295 it was 60.7 µM (inactive). For the same compound, the GI50 in the assay on SK-MEL-2 is 34.2 µM (inactive); with SK-MEL-5 it was > 100 µM (inactive); in the assay with SN12C it was 20.7 µM (inactive); in the assay with SNB-19, 34.2 µM (inactive); with TK-10, 8.97 µM (inactive); in the assay with UACC-257, 10.7 µM (inactive). Moreover, the GI50 with UO-31 is 19.8 µM (inactive).
As to `CC(=O)OCC1OC(n2c(N)c(C#N)c(-c3ccc(C)cc3)c(C#N)c2=S)C(OC(C)=O)C(OC(C)=O)C1OC(C)=O` (stereo not given), the GI50 in the assay with CCRF-CEM was 35.2 µM (inactive); with HCT-15, 38 µM; in the assay on Hs-578T it was 19.8 µM (inactive); in the assay on M14, 16.4 µM (inactive); in the assay on MDA-N, 17.1 µM (inactive); in the assay on Malme-3M it was 17.8 µM (inactive). Further, the GI50 in the assay on NCI-H23 was 21.1 µM (inactive); in the assay with OVCAR-3, 31.3 µM (inactive); in the assay on OVCAR-4, 41.9 µM (inactive); in the assay on RPMI-8226, 29.2 µM (inactive); with RXF 393 it was 18.7 µM (inactive); in the assay with SF-295, 25.4 µM (inactive). The GI50 in the assay on SK-MEL-2 was 15.2 µM (inactive); in the assay on SK-MEL-5, 11.1 µM (inactive); with SN12C, 15.6 µM (inactive); with SNB-19 it was 18.8 µM (inactive); in the assay on TK-10 it was 18.5 µM (inactive); in the assay on UACC-257, 19.2 µM (inactive). Besides, in the assay with UO-31, the GI50 is 17.9 µM (inactive).
`CCCCCCc1cc2cc(C(=O)Nc3ccccc3F)c(=N)oc2cc1O`: the GI50 is 4.76 µM (inactive) in the assay on CCRF-CEM; 3.93 µM with HCT-15; 11.4 µM (inactive) in the assay on Hs-578T; 10.2 µM (inactive) with M14; 7.29 µM (inactive) in the assay on MDA-N; 6.12 µM (inactive) with Malme-3M. In addition, the GI50 is 3.18 µM (inactive) in the assay on NCI-H23; 6.38 µM (inactive) with OVCAR-3; 4.93 µM (inactive) with OVCAR-4; 3.66 µM (inactive) in the assay with RPMI-8226; 12.1 µM (inactive) in the assay on SF-295; 7.21 µM (inactive) with SK-MEL-2. The GI50 in the assay with SK-MEL-5 is 3.19 µM (inactive); in the assay with SNB-19, 8.83 µM (inactive); with SR, 2.83 µM (inactive); in the assay on UACC-257, 6.64 µM (inactive); in the assay with UO-31, 4.27 µM (inactive).
With `O=C(OC[C@H]1C[C@H]2C(=O)OCCC[C@H]2O1)c1ccccc1`, the GI50 in the assay on CCRF-CEM is > 100 µM (inactive); in the assay on HCT-15 it was above 100 µM; with Hs-578T, > 100 µM (inactive); in the assay on M14 it was > 100 µM (inactive); with MDA-N it was > 100 µM (inactive); with NCI-H23 it was > 100 µM (inactive). The GI50 with OVCAR-3, with OVCAR-4, with RPMI-8226, in the assay with SF-295, in the assay on SK-MEL-2 and with SK-MEL-5 was > 100 µM (inactive) each time. Further, the GI50 in the assay with SN12C, with SNB-19, in the assay on SR, in the assay on TK-10, in the assay on UACC-257 and in the assay with UO-31 was > 100 µM (inactive) in each case.
On to `N/C(=N\O)N/N=C/c1cc(Br)cc(Br)c1O`, for which the GI50 in the assay on CCRF-CEM was 0.491 µM (active); with HCT-15, 0.67 µM; in the assay with Hs-578T it was 26.9 µM (inactive); with M14, 2.43 µM (inactive); in the assay with MDA-N it was 10.8 µM (inactive); with Malme-3M, 2.96 µM (inactive). For the same compound, the GI50 in the assay with NCI-H23 was 7.06 µM (inactive); in the assay on OVCAR-3, 2.37 µM (inactive); with OVCAR-4 it was 4.23 µM (inactive); with RPMI-8226, 2.61 µM (inactive); in the assay with RXF 393, 4.32 µM (inactive); in the assay on SF-295, 4.98 µM (inactive). Also, the GI50 is 8.04 µM (inactive) in the assay on SK-MEL-2; 6.89 µM (inactive) in the assay with SK-MEL-5; 1.86 µM (inactive) in the assay with SN12C; 7.11 µM (inactive) with SNB-19; 5.35 µM (inactive) with TK-10; 14 µM (inactive) in the assay with UACC-257. For the same compound, in the assay on UO-31, the GI50 is 1.92 µM (inactive).
Turning to `CCOc1ccc(N/C(=C(/C(Cl)=C(/Cl)N(CC)CC)[N+](=O)[O-])n2nnc3ccccc32)cc1`, the GI50 in the assay on CCRF-CEM was 19.8 µM (inactive); with HCT-15 it was 19.1 µM; with Hs-578T, 47.6 µM (inactive); in the assay on M14, 31.8 µM (inactive); in the assay on MDA-N it was 26.7 µM (inactive); in the assay with Malme-3M, 17.9 µM (inactive). The GI50 with NCI-H23 is 17.2 µM (inactive); with OVCAR-3, 5.24 µM (inactive); with OVCAR-4, 19.7 µM (inactive); in the assay with RPMI-8226, 26.9 µM (inactive); in the assay with RXF 393, 14.4 µM (inactive); in the assay on SF-295, 30.6 µM (inactive). The GI50 is 28.2 µM (inactive) with SK-MEL-2; 21.6 µM (inactive) with SN12C; 31.7 µM (inactive) in the assay on SNB-19; 38.7 µM (inactive) with UACC-257; 19.6 µM (inactive) with UO-31.
As for `Cc1ccc(S(=O)(=O)NC(=O)NCC(=O)O)cc1`, the GI50 in the assay on CCRF-CEM was > 100 µM (inactive); with HCT-15 it was above 100 µM; in the assay on Hs-578T it was > 100 µM (inactive); with M14, > 100 µM (inactive); with MDA-N, > 100 µM (inactive); in the assay on Malme-3M, > 100 µM (inactive). The GI50 in the assay with NCI-H23, in the assay on OVCAR-4, in the assay on RPMI-8226, with RXF 393, in the assay on SF-295 and with SK-MEL-2 was > 100 µM (inactive) throughout. Also, the GI50 with SK-MEL-5, in the assay on SN12C, in the assay on SNB-19, in the assay on TK-10, in the assay with UACC-257 and in the assay on UO-31 was > 100 µM (inactive) each time.
